We go through 2 molecules from patent publication US20190282673A1, “STAPHTAME ACTIVITY ON BIOFILMS” (priority 2016, published 2019).

Test [1] deals with S. epidermidis B9470 biofilms on catheters. The experiment in a line: Preformed biofilms on catheters, safranin staining and SEM. Format: cell-based, Staphylococcus epidermidis. Particulars: 18 hrs; P128 8 μg/mL (1×MIC); vancomycin 30 μg/mL (30×MIC). On the procedure: In order to simulate the in vivo conditions for biofilm formation in device associated infections, S. epidermidis B9470 was allowed to form biofilms on the surface of catheters. An overnight-grown culture was diluted 1:40 in TSB containing 4% sodium chloride. Catheter (JMS Infusion set) pieces of 1-2 cm size were cut, slit into two halves and added to the culture. The cultures with catheter pieces were incubated at 37° C. with shaking at 100 rpm for 42 h. Post incubation, the catheters were removed and rinsed twice in PBS to remove the adhering planktonic cells. The biofilms on catheters were challenged with 8 μg/mL of P128 or 30 μg/mL of vancomycin by transferring the catheter pieces into tubes containing the drugs. The tubes were incubated at 37° C. under static conditions for 18 hrs. The catheters were then removed from the tubes, rinsed once in PBS, and immersed in 0.1% safranin [a dye that stains cell wall of bacteria] for 5 min. The stained catheters were washed once in PBS and allowed to dry. After drying, samples were fixed on aluminum stubs with double sided carbon adhesive tape, coated with 5-7 nm thickness gold using a sputter-coating system (Quorum Technologies; Q150T) and examined by SEM (Carl Zeiss. Neon 40) for the presence of biofilm structures.

Test [2] relates to S. aureus strains BK18 and B9377. The experiment in a line: Generation and confirmation of antibiotic persisters (CFU over time). Format: cell-based, Staphylococcus aureus. As to conditions: for CFU/mL, generation of persisters / CFU/mL, confirmation of persisters (regrown, re-exposed): Vancomycin 100X; for CFU/mL, generation of persisters: Daptomycin 50X MIC; for CFU/mL, confirmation of persisters (regrown, re-exposed): Daptomycin 50×. On the procedure:
(§1) Persisters of S. aureus BK18 and B9377 and S. epidermidis strain B9470 were generated as per protocol described by Lechner, et al (Staphylococcus aureus persisters tolerant to bactericidal antibiotics. Lechner, et al. (2012) J Mol Microbiol Biotechnol; 22(4):235-44). Briefly, colonies were suspended in LB broth and allowed to grow at 37° C., 200 rpm for ˜2 hours. The cultures were pelleted, resuspended in MHB and OD600 was adjusted to 0.5 to 1.0 OD (˜2 to 5×10^8 CFU/mL). […] The test tubes were incubated at 37° C., 200 rpm, and 250 μL was sampled out at 4, 8, and 24 hr time points. This aliquot was pelleted, washed in saline and resuspended in equal volume of saline, diluted and plated on LB agar. Rapid decrease in CFUs, followed by rather stable values for up to 24 hrs, indicated the presence of Daptomycin/Vancomycin tolerant persisters.
(§2) After sampling for P128 and antibiotic activity, the rest of the sample was pelleted, washed in saline and resuspended into fresh media (LB). Allowed to grow at 37° C., 200 rpm until it reaches 1 OD and then the same steps followed as done for generation of persisters. A biphasic growth curve similar to that obtained during generation of persisters would indicate the tolerance to be phenotypic and not genotypic.

Test [3] deals with S. epidermidis strain B9470. The description is as above. As to conditions: for CFU/mL, generation of persisters: Vancomycin 50X, Daptomycin 10X MIC; for CFU/mL, confirmation of persisters (regrown, re-exposed): head prints Vancomycin 100X, Daptomycin 50×. Format: cell-based, Staphylococcus epidermidis. The protocol: as §1, §2
A further test relates to S. aureus USA300. As to the kind of experiment: Mouse model of S. aureus with mucin-enhanced virulence, survival. Format: in vivo, BALB/c mice. Particulars: S. aureus USA300 10^9 CFU ip, P128 […] ip, Vancomycin 27.5 mg/kg sc 2 doses, or both. The protocol:
Eight to nine weeks old female BALB/c mice were challenged intraperitoneally with 10^9 CFU of S. aureus USA300. At 2 hours post-infection, animals were treated with either P128 at 2.5 mg/kg intraperitoneally, or vancomycin at 27.5 mg/kg subcutaneously, or combination of both. Groups treated with only vancomycin or combination of P128 and vancomycin were administered with a second dose of vancomycin at 12 hours after the first treatment. At 72 hours post-infection, P128 and vancomycin yielded 56 and 44% survival, respectively.

The subject of another test is S. epidermidis. As to the kind of experiment: MIC and checkerboard synergy (broth microdilution) on planktonic cells. The class given is cell-based, Staphylococcus epidermidis. The protocol:
Bacterial cultures at a final cell number of 5×10^5 CFU/mL was added to wells of 96-well microtiter plates (precoated with 0.5% BSA), containing two-fold dilutions of P128 and the second drug in cation adjusted Mueller Hinton Broth (CAMHB). The plates were incubated at 37° C. for 24 h and the individual MICs and the combination MICs were read. The fractional inhibitory concentration index (FICI) was determined using the following equation: FICI=(MIC of drug A in the combination/MIC of drug A alone)+(MIC of drug B in the combination/MIC of drug B alone). The combination was considered to be synergistic when the FICI was ≤0.5; additive when FICI was 0.5-1.0; indifferent when FICI was 1-4 and antagonistic when FICI≥4.
S. epidermidis culture at a final cell number of 5×10^5 CFU/mL was added to wells of 96-well microtiter plates (precoated with 0.5% BSA), containing two-fold dilutions of P128 and either Daptomycin or Oxacillin in cation adjusted Mueller Hinton Broth (CAMHB). CAMHB was supplemented with 50 µg/mL Ca^++ for daptomycin assay. The plates were incubated at 37° C. for 24 h and the individual MICs and the combination MICs were read. The fractional inhibitory concentration index (FICI) was determined using the following equation: FICI=(MIC of drug A in the combination/MIC of drug A alone)+(MIC of drug B in the combination/MIC of drug B alone). The combination was considered to be synergistic when the FICI was ≤0.5; additive when FICI was between 0.5-1.0; indifferent when FICI was between 1-4 and antagonistic when FICI was ≥4. The experiments were performed in triplicate and repeated twice.

In test [4] the test system is MRSA MW2 biofilm on catheter. As to the kind of experiment: In vivo biofilm on catheter implanted subcutaneously in neutropenic mice.
Method: Eight-nine week old female BALB/c mice 25 g were rendered neutropenic with cyclophosphamide and were operated under ketamine-xylazine anesthesia. A 1-cm incision was made in the dorsal neck surface by aseptic technique and subcutaneous pouch was created. Catheter segments of 1 cm length pre-incubated with MRSA MW2 suspension (6×10^3 CFUs/mL) for 4 hrs, were placed in the subcutaneous space and the wounds were closed with suture thereafter. As uninfected control, one group of mice were surgically operated and a sterile catheter segment was placed in the cavity. At 24 hours post-catheter implantation, mice were treated with P128 (800 μg per animal, subcutaneously) or with the placebo (saline). Treatments were given thrice a day at 2 hr intervals for three days and 1 hr after the last treatment, the catheters were removed, biofilms were harvested and CFUs recovered were plated on culture media and enumerated. Catheters from a subset of animals were stained with 0.1% safranin, (which stains the bacteria) for 5 min.
For evaluation of synergy with daptomycin, mouse model of biofilm described above was used with few modifications. Eight-nine week old female BALB/c mice 25 g were rendered neutropenic with cyclophosphamide and were operated under ketamine-xylazine anesthesia. A 1-cm incision was made in the dorsal neck surface by aseptic technique and subcutaneous pouch was created. Catheter segments measuring 1 cm were placed in the subcutaneous space, and the wounds closed with suture. At 72 hours post-implantation. MRSA MW2 bacterial inoculum (2.1×10^7 CFU per animal) was injected subcutaneously onto the catheter. At 24 hrs post-challenge, animals were treated with either P128 (800 μg per animal, subcutaneous), or daptomycin (12.5 mg/kg, subcutaneous) or a combination of both. Daptomycin was given once every day for three days whereas P128 was administered thrice a day at 2 hr interval for three days. 1 hr after the last treatment, animals were euthanized and catheters were collected and recovered CFUs were enumerated.
Biofilms were also visualized by staining the catheters with 0.1% safranin.
Setting [5] is: P128 800 μg per animal sc, thrice a day for three days.
[6] abbreviates: Table VB1: pre-colonised catheter, P128 800 μg per dose sc, 3 doses/day for 3 days.

Several values for one entry are separate records, joined by “and”; a condition that tells them apart may be missing. Identical values can stand only once.

`CN[C@H](CC(C)C)C(=O)N[C@H]1C(=O)N[C@@H](CC(N)=O)C(=O)N[C@H]2C(=O)N[C@H]3C(=O)N[C@H](C(=O)N[C@H](C(=O)O)c4cc(O)cc(O)c4-c4cc3ccc4O)[C@H](O)c3ccc(c(Cl)c3)Oc3cc2cc(c3O[C@@H]2O[C@H](CO)[C@@H](O)[C@H](O)[C@H]2O[C@H]2C[C@](C)(N)[C@H](O)[C@H](C)O2)Oc2ccc(cc2Cl)[C@H]1O` [Vancomycin, vancomycin]: the “Effect on catheter biofilm (safranin/SEM)” value in test [1] was “minimal effect”. Also, the “CFU/mL, generation of persisters” value in test [2] (B9377, 0 h) is 2.5 × 10^8 CFU/mL; in test [2] (B9377, 4 h), 8 × 10^6 CFU/mL; in test [2] (B9377, 8 h), 1.9 × 10^6 CFU/mL; in test [2] (B9377, 24 h) it was 1.1 × 10^5 CFU/mL; in test [2] (BK18, 0 h), 2 × 10^8 CFU/mL; in test [2] (BK18, 4 h) it was 1 × 10^7 CFU/mL. Further, the “CFU/mL, generation of persisters” value is reported as 2 × 10^6 CFU/mL in test [2] (BK18, 8 h); 4 × 10^5 CFU/mL in test [2] (BK18, 24 h); 3.2 × 10^7 CFU/mL in test [3] (B9470, 0 h); 1 × 10^6 CFU/mL in test [3] (B9470, 2 h); 3 × 10^5 CFU/mL in test [3] (B9470, 4 h); 9 × 10^3 CFU/mL in test [3] (B9470, 8 h). Also, the “CFU/mL, generation of persisters” value in test [3] (B9470, 24 h) is 3 × 10^4 CFU/mL. In addition, the “CFU/mL, confirmation of persisters (regrown, re-exposed)” value (“CFU/mL, confirmation of persisters” below) in test [2] (B9377, 0 h) is 1.5 × 10^8 CFU/mL; in test [2] (B9377, 4 h), 2 × 10^6 CFU/mL; in test [2] (B9377, 8 h), 2 × 10^6 CFU/mL; in test [2] (B9377, 24 h) it was 8 × 10^5 CFU/mL; in test [2] (BK18, 0 h) it was 1 × 10^8 CFU/mL; in test [2] (BK18, 4 h) it was 2.5 × 10^5 CFU/mL. Also, the “CFU/mL, confirmation of persisters” value in test [2] (BK18, 8 h) is listed as 1 × 10^5 CFU/mL; in test [2] (BK18, 24 h), 1 × 10^5 CFU/mL; in test [3] (B9470, 0 h), 2 × 10^7 CFU/mL; in test [3] (B9470, 2 h) it was 1 × 10^5 CFU/mL; in test [3] (B9470, 4 h), 6 × 10^4 CFU/mL; in test [3] (B9470, 8 h), 1.5 × 10^4 CFU/mL. Further, the “CFU/mL, confirmation of persisters” value in test [3] (B9470, 24 h) is listed as 5 × 10^3 CFU/mL. Moreover, in test [2] (generation of persisters), the “Drop in CFU at the end of 4 h treatment” value is “Approximately two log drop in CFU”. For the same molecule, the “Survival at 72 h post infection” value with S. aureus USA300 is listed as 43%; in the test on S. aureus USA300 (listed as vancomycin) it was 44%.

B1: P128: anti-staphylococcal chimeric protein: phage tail associated muralytic enzyme (TAME) cell wall-degrading region plus staphylococcus-specific binding region; SEQ ID NO: 1 (protein)
chain: MSLDSLKKYNGKLPKHDPSFVQPGNRHYKYQCTWYAYNRRGQLGIPVPLWGDAADWIGGAKGAGYGVGRTPKQGACVIWQRGVQGGSPQYGHVAFVEKVLDGGKKIFISEHNYATPNGYGTRTIDMSSAIGKNAQFIYDKKLETPNTGWKTNKYGTLYKSESASFTPNTDIITRTTGPFRSMPQSGVLKAGQTIHYDEVMKQDGHVWVGYTGNSGQRIYLPVRTWNKSTNTLGVLWGTIK
modifications: P128 chimera
As to B1, the “MIC (drug alone)” value with S. epidermidis (S. epidermidis ATCC 12228) was 4 µg/mL; in the test on S. epidermidis (S. epidermidis B9467), 32 µg/mL; in the test with S. epidermidis (S. epidermidis B9468) it was 2 µg/mL; in the test with S. epidermidis (S. epidermidis B9470), 8 µg/mL; in the test on S. epidermidis (S. epidermidis B9472), 16 µg/mL and 8 µg/mL; with S. epidermidis (S. epidermidis B9473) it was 16 µg/mL. Moreover, the “MIC over the strains” value with S. epidermidis (S. epidermidis strains of Tables 7 and 8) is 2 to 32 µg/mL. Moreover, the “Effect on catheter biofilm (safranin/SEM)” value in test [1] was “eradication of the biofilm”. Also, the “Survival at 72 h post infection” value with S. aureus USA300 worked out at 56%. In addition, the “Reduction in CFUs compared to the control group” value in test [4] (setting [5]) is on record as “greater than 1 log”. Moreover, the “Safranin staining of catheters” value in test [4] (setting [5]) is “eradication of biofilm”. The “Avg. CFU recovered from catheter biofilm” value in test [4] (setting [6]) is reported as 2.8 CFU Log(10)/ml. For the same molecule, the “CFU recovered from catheter biofilm, individual animals” value was 4.15 CFU (Log10)/ml and 3.12 CFU (Log10)/ml and 1.00 CFU (Log10)/ml and Nil in test [4] (setting [6]); 2.5 CFU (Log10)/ml and 2.0 CFU (Log10)/ml and 2.7 CFU (Log10)/ml in test [4] (Table VB2: Daptomycin 12.5 mg/kg sc 1 dose per day for 3 days, P128 800 μg per dose sc 3 doses/day for 3 days, or both).
